This note sets out measurements from PubChem BioAssay (NCI).

Common to all, as to experiment: NCI-60 cell line screen, 48 h
Assay [1] relates to K-562 leukemia.
In assay [2] the test system is MOLT-4 leukemia.
Assay [3] deals with NCI-H460 lung.
Assay [4] has as its system OVCAR-4 ovarian.
The subject of assay [5] is OVCAR-5 ovarian.
The subject of assay [6] is RPMI-8226 leukemia.
In assay [7] the test system is SF-268 CNS.
Assay [8] concerns SF-539 CNS.
Assay [9] concerns U251 CNS.
Assay [10] deals with UO-31 renal.

“And” between values parts separate entries of the source, which are not always exact repeats. Equal entries are not always repeated.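 Growth conditions: 96-well plates. Treatment: test compound, 48 hours, 5 concentrations. Analysis: linear interpolation between bracketing concentrations; unreached endpoints set to highest concentration. Here, GI50 denotes the concentration required for 50% inhibition of growth. TGI is the concentration that stops growth completely.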 Where only a bound is given, the exact number is not on record here.

As to `COC1=C(OC)C(=O)C(C/C=C(\C)CC/C=C(\C)CC/C=C(\C)CC/C=C(\C)CC/C=C(\C)CC/C=C(\C)CC/C=C(\C)CC/C=C(\C)CC/C=C(\C)CCC=C(C)C)=C(C)C1=O`, the GI50 in assay [1], in assay [2], in [3], in assay [4], in assay [5] and in assay [6] was greater than 100 µM each time. Further, the GI50 in assay [7], in assay [8], in assay [9] and in assay [10] was greater than 100 µM each time. The TGI in assay [1], in [2], in assay [3], in [4], in [5] and in [6] was greater than 100 µM in each case. Moreover, the TGI in assay [7], in [8], in [9] and in assay [10] was greater than 100 µM each time.

`COc1ccc(-c2cc3ccccc3[nH]c2=O)cc1OC`: the TGI in [1], in [2], in assay [3], in assay [4], in assay [5] and in assay [6] was greater than 100 µM in each case. Besides, the TGI in assay [7], in assay [8], in assay [9] and in [10] was greater than 100 µM throughout.

`CN1CCN(CCCOc2ccc3nc(Nc4ccc(F)c(F)c4)ccc3c2)CC1`: the GI50 in assay [1] is 1.37 µM; in assay [2] it was 2.37 µM; in [3], 1.91 µM; in [4] it was 2.84 µM; in [5] it was 2.26 µM; in assay [6] it was 1.7 µM. The GI50 was 2.45 µM in [7], 1.8 µM in assay [8], 1.69 µM in [9] and 1.68 µM in assay [10]. Also, the TGI came out at 5.25 µM in assay [1]; 7.76 µM in assay [2]; 4.12 µM in assay [3]; 14.9 µM in [4]; 5.62 µM in [5]; 6.3 µM in [6]. The TGI in [7] came to 8.31 µM; in [8] it was 3.73 µM; in assay [9] it was 3.64 µM; in assay [10], 3.43 µM.

In the case of `CCC1CCCCN1CC(C(C)=O)C(c1ccccc1)c1c(O)c2ccccc2oc1=O` (stereo unspecified), the TGI in assay [1], in assay [2], in [3], in [4], in assay [5] and in assay [6] was greater than 100 µM throughout. The TGI in [7], in [8], in assay [9] and in [10] was greater than 100 µM each time.

For the molecule `COc1cc(/C=C/C(=O)CC(=O)/C=C/c2cc(OC)c(O)c(OC)c2)cc(OC)c1O`, the TGI in assay [1] is 25 µM and > 100 µM; in assay [2] it was 25 µM and 84.4 µM; in assay [3], greater than 100 µM; in assay [4], 25 µM and > 100 µM; in assay [5] it was 25 µM and 83.5 µM; in assay [6] it was 30.8 µM. Moreover, the TGI was 15.4 µM and 41.2 µM in assay [7]; 25 µM and > 100 µM in [8]; 25 µM and 36.1 µM in [9]; greater than 100 µM in [10]. In addition, the GI50 in [2] is 5.1 µM; in assay [4] it was 29.5 µM; in [5], 27.1 µM; in assay [7] it was 9.06 µM; in assay [8], 44.2 µM; in [10], 41.2 µM.

Consider `CC1=C(CO)C(=O)O[C@@H]([C@@H](C)[C@H]2CC[C@H]3[C@@H]4C[C@H]5O[C@]56[C@@H](O)C=CC(=O)[C@]6(C)[C@H]4CC[C@]23C)C1`, for which the TGI in [1] turned out to be 2.5 µM; in assay [2] it was 1.72 µM; in assay [3], 5.11 µM; in assay [4] it was 1.8 µM; in [5], 2.64 µM; in assay [6] it was 37.5 µM. Moreover, the TGI in [7] amounted to 1.29 µM; in [8] it was 2.3 µM; in assay [9], 1.52 µM; in assay [10] it was 1.31 µM.

With `CCCCCCC(=O)C/C(CCC(=O)N(Cc1ccccc1)Cc1ccccc1)=N\NC(N)=O`, the TGI in [1], in assay [2], in [3], in [4], in assay [5] and in [6] was greater than 100 µM each time. The TGI in assay [7], in assay [8], in [9] and in assay [10] was greater than 100 µM each time.

On to `Cc1ccc(S(=O)(=O)n2cc([C@@]3(O)C[C@H](CSC#N)OC3=O)c3ccccc32)cc1`, for which the GI50 is 6.2 µM in assay [1]; 1.71 µM in assay [2]; 9.19 µM in [3]; 15.6 µM in assay [4]; 13.2 µM in [5]; 2.75 µM in assay [6]. The GI50 is 5.1 µM in assay [7], 4.57 µM in assay [8], 12.8 µM in assay [9] and 4.62 µM in assay [10]. The TGI worked out at 23.6 µM in [1]; 4.52 µM in assay [2]; 23.9 µM in assay [3]; 43.3 µM in assay [4]; 28.2 µM in assay [5]; 40.1 µM in [6]. Further, the TGI is 19.7 µM in assay [7], 16.2 µM in [8], 32.7 µM in assay [9] and 19.3 µM in assay [10].

For the molecule `CN1CCN(Cc2ccc(NC(=O)c3[nH]ncc3Nc3ncnc4[nH]ccc34)cc2)CC1`, the GI50 in assay [1] is 0.265 µM; in assay [2] it was 0.142 µM; in assay [3], 0.328 µM; in assay [4], 0.215 µM; in assay [5] it was 0.456 µM; in assay [6] it was 2.43 µM. For the same molecule, the GI50 is 0.374 µM in [7], 0.133 µM in assay [8], 0.251 µM in assay [9] and 0.82 µM in assay [10]. The TGI in [1] was greater than 100 µM; in assay [2], 0.598 µM; in assay [3], 4.67 µM; in assay [4], 0.68 µM; in [5], 17.4 µM; in [6], 6.59 µM. In addition, the TGI in assay [7] came out at 1.42 µM; in assay [8] it was 0.429 µM; in assay [9] it was 10.7 µM; in [10], 4.57 µM.
